Source: US10105339B2, “Ingenol derivatives in the reactivation of latent HIV” (priority 2012, dated 2018)

How the values were obtained:
[1] = system: HIV-1 latent virus in PBMC cells of patient; assay: Activation of latent HIV in PBMC from patient under anti-retroviral treatment (semi-nested real time PCR of intracellular vRNA); type: cell-based; details: 72 hours
Description: It was tested, in this experiment, the ability of ingenol derivative, of formula I, wherein Z=Z2, mentioned as B, of activating latent cells from patients who were already under anti-retroviral treatment for more than 1 year with undetectable viral load. A patient (identified as MLV) was selected, which had already been under treatment with zidovudine+lamivudine (AZT+3TC) and efavirenz for over 14 months, with undetectable viral load and CD4>500 cells/mm^3. 20 mL of blood was collected from the patient in a EDTA (ethylene diamine tetra acetic acid) tube and PBMC cells were isolated, which were placed in RPMI culture medium with 10% fetal bovine serum and 50 IU/mL of IL2 (interleukin 2), and grown in 2 bottles with 5 mL of identical cells (106/mL) with different selective compositions. 10 μM efavirenz (antiviral) was added to the control bottle to block viral replication that would eventually arise from cultured cells. In another test bottle both efavirenz (10 μM) and the B derivative of the invention (1 μM) were included. […]

CD4 HIV-1 receptor = assay: Downregulation of CD4 receptor on human lymphocytes and monocytes/macrophages (flow cytometry); type: cell-based; details: summary statement for lymphocytes and monocytes/macrophages (human and monkey cells tested)
Source text: It is verified in this test that ingenol derivatives of formula 1, when Z=Z2, at concentrations that activate HIV from latency in Jlat cells in example 3, downregulate the expression of CD4 cell receptor on the surface of HIV-human and SIV-pig-tail monkey CD4+T lymphocytes and macrophages. For this experiment PBMC cells from human and monkeys were isolated from peripheral blood with isolation through Ficoll-Hypaque density gradient (mixture of high density hydrophilic neutral polysaccharides that readily dissolves in aqueous solution. “Ficoll” is a trademark of GE Healthcare Bio-Sciences, USA). Thus, PBMC cells from human and monkeys, at concentration of 10^6 cells/mL, were cultured in RPMI medium with 10% fetal bovine serum for 24 hours and adhered cells (monocytes differentiating into macrophages) were separated from the cell supernatant which contained total lymphocytes. Those two distinct populations of cells were exposed to different concentrations of A, B and C derivatives of the invention, and left in culture for 72 hours. After exposure, the cells were stained with specific lymphocyte monoclonals (anti-CD3) and monocytes/macrophages (anti-CD14) simultaneously with an anti-CD4. Thus, the cells were centrifuged at 1000 G for 3 minutes and washed with the same PBS volume (without Ca^2+ and Mg^2+, Cat. No. 9240, Irvine Scientific, USA) containing 2% fetal bovine serum. This wash was repeated 3 times and the cells were suspended in 1×PBS containing a 1/1000 dilution of relevant antibodies and left to incubate for 30 min at 4° C. until being read in flow cytometry. After incubation, 30,000 cells were read in a BD-Excalibur flow cytometer (from Beckton Dickinson and co., USA) and the populations were separated and the CD4 receptor density was estimated at different concentrations of the B derivative, assuming cell density without B derivative as 100%. […]

SMILES	intracellular HIV-1 vRNA ([1]; 1 μM B derivative plus 10 μm efavirenz, FIG. 8)	downregulation of the main HIV receptor (CD4) on the surface of infection targeted cells (CD4 HIV-1 receptor)	intracellular HIV-1 vRNA ([1]; 10 μM efavirenz alone (control bottle), FIG. 7)
CCCCCC(=O)OC1C(C)=CC23C(=O)C(C=C(CO)C(O)C12O)C1C(CC3C)C1(C)C (centres unmarked) [B, Ingenol 3-caproate]	emergence of intracellular HIV-1 vRNA	able to downregulate	–
CC1=CC23C(=O)C(C=C(CO)C(O)C2(O)C1OC(=O)/C=C/c1ccccc1)C1C(CC3C)C1(C)C (centres unmarked) [A, Ingenol 3-cinnamate]	–	able to downregulate	–
CCCCCCCCCCCC(=O)OC1C(C)=CC23C(=O)C(C=C(CO)C(O)C12O)C1C(CC3C)C1(C)C (centres unmarked) [C, ingenol 3-dodecanoate]	–	able to downregulate	–
O=C1Nc2ccc(Cl)cc2[C@@](C#CC2CC2)(C(F)(F)F)O1 [efavirenz, reference compound]	–	–	did not produce intracellular vRNA
